{"source": "paper PMC7180638", "about": "“Synthesis of Pyrrolidine Monocyclic Analogues of Pochonicine and Its Stereoisomers: Pursuit of Simplified Structures and Potent β-N-Acetylhexosaminidase Inhibition” (Molecules, 2020)", "origin": "cited, not measured here", "key": {"[1]": {"biological_target": "β-N-Acetylhexosaminidase (Bovine liver)", "settings": "ref [2]; cited from earlier work"}, "[2]": {"biological_target": "β-N-Acetylhexosaminidase (HL60)", "settings": "ref [2]; cited from earlier work"}, "[3]": {"biological_target": "β-N-Acetylhexosaminidase (Jack bean)", "settings": "ref [2]; cited from earlier work"}, "[4]": {"biological_target": "β-N-Acetylgalactosaminidase (HL60)", "settings": "ref [2]; cited from earlier work"}, "[5]": {"biological_target": "T1, α-N-Acetylgalactosaminidase (Chicken liver) (Gallus gallus, UniProt Q90744)", "T1 construct": "purchased Sigma-Aldrich Chemical Co; host or cells: chicken liver", "T1 sequence (Q90744 1-405)": "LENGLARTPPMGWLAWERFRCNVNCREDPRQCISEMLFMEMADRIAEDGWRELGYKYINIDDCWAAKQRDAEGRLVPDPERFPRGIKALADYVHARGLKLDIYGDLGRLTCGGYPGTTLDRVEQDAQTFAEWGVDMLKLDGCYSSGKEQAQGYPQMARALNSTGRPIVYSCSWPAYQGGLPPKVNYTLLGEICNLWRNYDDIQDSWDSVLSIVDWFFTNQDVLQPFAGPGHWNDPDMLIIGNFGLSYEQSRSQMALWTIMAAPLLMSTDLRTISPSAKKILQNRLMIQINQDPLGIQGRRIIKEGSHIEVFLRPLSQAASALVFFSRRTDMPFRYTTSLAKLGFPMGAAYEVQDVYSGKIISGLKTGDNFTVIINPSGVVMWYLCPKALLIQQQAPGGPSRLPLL", "settings": "ref [2], cited from earlier work"}, "[6]": {"biological_target": "β-N Acetylhexosaminidase (A. oryzae)", "settings": "ref [2]; cited from earlier work"}, "[7]": {"biological_target": "β-N Acetylhexosaminidase (Human placenta)", "settings": "ref [2]; cited from earlier work"}}, "note": "Where two headings read alike, the source gives them in different places."}
{"smiles": "CC(=O)NC[C@H]1[C@H](O)[C@H](O)[C@@H]2[C@H](O)C[C@@H](CO)N21", "note": "[Pochonicine (1), pochonicine]", "values": [{"measurement": "IC50", "setting": "[1]", "result": 21, "unit": "nM"}, {"measurement": "IC50", "setting": "[2]", "result": 18, "unit": "nM"}, {"measurement": "IC50", "setting": "[3]", "result": 1.6, "unit": "nM"}, {"measurement": "IC50", "setting": "[4]", "result": 49, "unit": "nM"}, {"measurement": "Inhibition % at 1000 μM", "setting": "[5]; 1000 μM", "result": 9.0, "unit": "%"}, {"measurement": "IC50", "setting": "[5]; listed as pochonicine (1)", "result": "did not exhibit any inhibition"}, {"measurement": "IC50", "setting": "[5]", "result": "NI (No Inhibition (less than 50% at 1000 μM))"}, {"measurement": "IC50", "setting": "[6]", "result": 330, "unit": "nM"}, {"measurement": "IC50", "setting": "[7]", "result": 12, "unit": "nM"}]}
